Measured values taken from patent US6461997B1, “Triazole sulfones having herbicidal activity” (Monsanto Technology LLC, priority 1999, dated 2002).

Experiments:
STEME (common chickweed) = test: Pre-plant incorporated (PPI) herbicidal activity, cool season; format: in vivo, Stellaria media; settings: for Percent inhibition STEME: weed, PPI application; for PPI activity GR80, STEME: pre-plant incorporated, lowest tested rate with 80% or greater inhibition, about 14 days
Method: (§1) In another set of tests, the pre-plant incorporated (PPI) activity of compounds of this invention was evaluated on the same species as for the pre-emergence tests described above. In the PPI tests the following procedure, designed to simulate PPI application, was used.
(§2) A pre-prepared topsoil mixture (described above) was placed in a pot and compacted to a depth of 1.0 to 1.25 cm from the top of the pot. Seeds of each of several monocotyledonous and dicotyledonous annual plant species were placed on top of the soil. A sufficient quantity of soil to cover the seeds and level fill the pot was weighed into an open container. A known amount of the test compound was dissolved or suspended in an organic solvent and applied by spraying to this cover soil. The cover soil was thoroughly mixed to distribute the test compound throughout the cover soil, and was then applied as a cover layer over the seeds. Untreated soil was used as a cover layer for control pots. After treatment the plants were placed in a greenhouse where they received 0.64 cm of overhead irrigation. All subsequent watering consisted of a light overhead mist and/or subirrigation as needed for germination and growth. Tables 9 and 10 below relate to warm season plant species which were placed after pre-emergence treatment in a greenhouse with a 30/21° C. day/night temperature regime. Tables 11 and 12 below relates to cool season plant species placed after pre-emergence treatment in a greenhouse or growth chamber with an 18/13° C. day/night temperature regime. Only the compounds of Examples 1, 6, 8, 11, 13 and 15-20 were included in PPI tests.
(§3) Approximately 14 days after planting and treating, the plants were observed and herbicidal efficacy recorded as percent inhibition by comparison with untreated plants.

DATST (jimsonweed) = test: Pre-plant incorporated (PPI) herbicidal activity, warm season; format: in vivo, Datura stramonium; settings: for Percent inhibition DATST: PPI application; for PPI activity (GR80) DATST: pre-plant incorporated, GR80 = lowest tested rate with 80% or greater inhibition, approx. 14 days after treating, 30/21° C.
Method: as §1, §2, §3

POROL (common purslane) = test: Pre-emergence herbicidal activity, warm season; format: in vivo, Portulaca oleracea; settings: GR80 = lowest tested rate (300, 100, 30, 10 g/ha) with 80% or greater inhibition; approx. 14 days after treating; 30/21° C.
Procedure, shortened: (§4)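 Seeds sown in sterilised fertilised topsoil received surface-applied compound in 50:50 acetone/water, typically at 300, 100, 30 and 10 g/ha, then greenhouse-grown at 30/21° C (warm-season species) or 18/13° C (cool-season species). Percent inhibition versus untreated plants was scored at about 14 days, giving GR80; an asterisk marks activity short of 80% at the top rate.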

[1] = system: AGSST (creeping bentgrass); test: Pre-plant incorporated (PPI) herbicidal activity, cool season; format: in vivo, Agrostis stolonifera; settings: for Percent inhibition AGSST: weed, PPI application; for PPI activity GR80, AGSST: pre-plant incorporated, lowest tested rate with 80% or greater inhibition, about 14 days
Method: as §1, §2, §3

SOLNI (black nightshade) = test: Pre-emergence herbicidal activity, warm season; format: in vivo, Solanum nigrum; settings: GR80 = lowest tested rate (300, 100, 30, 10 g/ha) with 80% or greater inhibition; approx. 14 days after treating; 30/21° C.
Procedure, shortened: as §4

[2] = system: VERPE (creeping speedwell); test: Pre-plant incorporated (PPI) herbicidal activity, cool season; format: in vivo, Veronica persicaria; settings: for PPI activity GR80, VERPE: pre-plant incorporated, lowest tested rate with 80% or greater inhibition, about 14 days; for Percent inhibition VERPE: weed, PPI application
Method: as §1, §2, §3

AVEFA (wild oat) = test: Post-emergence herbicidal activity, cool season; format: in vivo, Avena fatua; settings: abraded plants sprayed at 300, 100, 30 and 10 g/ha; about 14 days after treatment
Method: (§5) In another set of tests, the post-emergence activity of compounds of this invention was evaluated on the cool season species listed above. The following procedure was used.
(§6) A pre-prepared topsoil mixture (described above) was placed in a pot and compacted to a depth of 1.0 to 1.25 cm from the top of the pot. Seeds of each of several monocotyledonous and dicotyledonous annual plant species were placed on top of the soil. The seeds were covered with a mixture of 50% topsoil and 50% Rediearth™ in sufficient quantity to level-fill the pots. The pots were then placed on a greenhouse bench and subirrigated as needed.
(§7) When plants growing from the seeds had emerged and reached a suitable growth stage for post-emergence treatment, typically 9 to 14 days after planting, above-ground parts of the plants were subjected to a pre-treatment involving abrasion to create greater opportunity for foliar uptake of subsequently applied compounds. Abrasion was performed using garnet 200w particles applied with a Sears Craftsman hand-held sandblaster operated at approximately 850 kPa (50 psig) pressure.
(§8) A known amount of each test compound dissolved or suspended in an appropriate organic solvent was diluted with a 50:50 mix of acetone and water and applied to the plants by spraying with a standard spray nozzle in a spray volume of […] at a spray pressure of 511 kPa (30 psig). Only the compounds of Examples 1, 8-15 and 17-22 were included in post-emergence tests. Application rates for these compounds were 300, 100, 30 and 10 g/ha. Control plants were abraded but not sprayed.
(§9) After treatment the plants were placed in a greenhouse with an 18/13° C. day/night temperature regime and were subsequently watered as needed for growth. Approximately 14 days after treatment, the plants were observed and herbicidal efficacy recorded as percent inhibition by comparison with control plants. GR80 values were assigned for each compound as described above for the pre-emergence tests.

[3] = system: AGRRE (quackgrass (seedling)); test: Post-emergence herbicidal activity, cool season; format: in vivo, Elymus repens; settings: abraded plants sprayed at 300, 100, 30 and 10 g/ha; about 14 days after treatment
Method: as §5, §6, §7, §8, §9

[4] = system: AEGCY (jointed goatgrass); test: Post-emergence herbicidal activity, cool season; format: in vivo, Aegilops cylindrica; settings: abraded plants sprayed at 300, 100, 30 and 10 g/ha; about 14 days after treatment
Method: as §5, §6, §7, §8, §9

SMILES	Percent inhibition STEME (STEME (common chickweed); 30 g/ha) [%]	Percent inhibition STEME (STEME (common chickweed); 100 g/ha) [%]	Percent inhibition STEME (STEME (common chickweed); 300 g/ha) [%]	Percent inhibition STEME (STEME (common chickweed); 900 g/ha) [%]	Percent inhibition DATST (DATST (jimsonweed); 30 g/ha) [%]	Percent inhibition DATST (DATST (jimsonweed); 100 g/ha) [%]	Percent inhibition DATST (DATST (jimsonweed); 300 g/ha) [%]	Percent inhibition DATST (DATST (jimsonweed); 900 g/ha) [%]	Pre-emergence activity (GR80) POROL (POROL (common purslane)) [g/ha]	Percent inhibition AGSST ([1]; 30 g/ha) [%]	Percent inhibition AGSST ([1]; 100 g/ha) [%]	Percent inhibition AGSST ([1]; 300 g/ha) [%]	Percent inhibition AGSST ([1]; 900 g/ha) [%]	Pre-emergence activity (GR80) SOLNI (SOLNI (black nightshade)) [g/ha]	PPI activity GR80, STEME (STEME (common chickweed)) [g/ha]	PPI activity (GR80) DATST (DATST (jimsonweed)) [g/ha]	PPI activity GR80, VERPE [2] [g/ha]	PPI activity GR80, AGSST [1] [g/ha]	Percent inhibition STEME (STEME (common chickweed); 10 g/ha) [%]	Percent inhibition DATST (DATST (jimsonweed); 10 g/ha) [%]	also measured
CCN(CC)C(=O)n1cnc(S(=O)(=O)C(F)(F)F)n1 [Example 2]	60	90	80	95	0	10	80	70	100	100	99	100	100	300	–	–	–	–	–	–	–
CCN(CC)C(=O)n1cnc(S(=O)(=O)C(F)(F)Cl)n1 [Example 3]	60	80	100	100	0	30	70	100	100	100	100	100	100	100	–	–	–	–	–	–	–
CCN(CC)C(=O)n1cnc(S(=O)(=O)C(F)(F)C(F)(F)Br)n1 [Example 4]	10	60	80	95	0	0	40	75	100	100	100	100	100	300	–	–	–	–	–	–	–
CCN(CC)C(=O)n1cnc(S(=O)(=O)C(F)(F)C(=O)c2ccccc2)n1 [Example 6]	–	–	–	–	–	–	–	–	–	–	–	–	–	–	100	300	100	100	–	–	–
CCN(CC)C(=O)n1cnc(S(=O)(=O)C(F)(F)SCc2ccccc2)n1 [Example 10]	0	0	0	90	0	0	20	100	–	70	100	100	100	300	–	–	–	–	0	0	Post-emergence activity GR80, AVEFA (AVEFA (wild oat)): [empty]; Post-emergence activity GR80, AGRRE [3]: [empty]; Percent inhibition VERPE ([2]; 10 g/ha): 70%; Percent inhibition VERPE ([2]; 100 g/ha): 100%; Percent inhibition VERPE ([2]; 300 g/ha): 100%; Percent inhibition VERPE ([2]; 900 g/ha): 100%; Post-emergence activity GR80, AEGCY [4]: [empty]; Percent inhibition AGSST ([1]; 10 g/ha): 90%
CCN(CC)C(=O)n1cnc(S(=O)(=O)C(F)(F)C(F)F)n1 [Example 16]	75	60	60	95	0	20	70	100	100	100	100	100	100	100	300	100	100	10	40	0	Percent inhibition VERPE ([2]; 10 g/ha): 100%; Percent inhibition VERPE ([2]; 30 g/ha): 95%; Percent inhibition VERPE ([2]; 100 g/ha): 100%; Percent inhibition VERPE ([2]; 300 g/ha): 100%; Percent inhibition VERPE ([2]; 900 g/ha): 100%; Percent inhibition AGSST ([1]; 10 g/ha): 100%
